Laboratory results published in patent publication US8431593B2, “Heteroaryl amide derivatives” (H. Lundbeck A/S, priority 2006, dated 2013).

molecular target: T1, P2X7 receptor (Homo sapiens, UniProt Q99572); test: P2X7 calcium mobilization assay, high throughput, antagonist activity (Example 4A); assay type: cell-based; conditions: 50% decrease in the fluorescence response of cells exposed to 80 μM 2′(3′)-O-(4-benzoyl-benzoyl)adenosine 5′-triphosphate; Example 4A; read-out: IC50
T1 construct: host or cells: SH-SY5Y
T1 sequence (Q99572 1-595): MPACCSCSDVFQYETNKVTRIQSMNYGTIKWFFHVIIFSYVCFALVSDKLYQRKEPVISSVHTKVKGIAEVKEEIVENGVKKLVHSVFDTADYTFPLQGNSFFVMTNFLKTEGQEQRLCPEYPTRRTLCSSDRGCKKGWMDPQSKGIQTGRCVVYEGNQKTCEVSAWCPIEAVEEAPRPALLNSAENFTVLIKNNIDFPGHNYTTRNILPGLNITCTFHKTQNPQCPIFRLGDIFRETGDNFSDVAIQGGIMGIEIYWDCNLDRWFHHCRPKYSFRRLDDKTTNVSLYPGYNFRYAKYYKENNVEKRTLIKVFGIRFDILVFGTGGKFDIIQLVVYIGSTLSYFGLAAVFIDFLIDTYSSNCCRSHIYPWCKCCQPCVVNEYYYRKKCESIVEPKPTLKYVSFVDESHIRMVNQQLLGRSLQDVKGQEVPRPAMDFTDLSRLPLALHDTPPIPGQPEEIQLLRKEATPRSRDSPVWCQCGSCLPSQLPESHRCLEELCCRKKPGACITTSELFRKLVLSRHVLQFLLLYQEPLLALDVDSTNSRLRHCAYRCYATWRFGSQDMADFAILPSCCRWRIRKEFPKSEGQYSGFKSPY
Summary of the method: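 FLIPR^TETRA calcium read-out: maximum RFU per well minus average no-agonist control, with agonist wells giving the average positive maximum. Cells seeded at 100,000/well one day ahead, dye-loaded 1 h, rinsed, then exposed to compound for 1 h at room temperature.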

Row | IC50 | Compound
1 | < 2000 nM | O=C(NCC12CC3CC(CC(C3)C1)C2)c1cccc2nc(CS(=O)(=O)c3nnc[nH]3)cn12 [Compound 449, N-(adamantan-1-ylmethyl)-2-[(4H-1,2,4-triazol-3-ylsulfonyl)methyl] imidazo [1,2-a]pyridine-5-carboxamide]
2 | < 2000 nM | C[C@@H]1CN(C(=O)Cc2cn3c(C(=O)NC[C@@H]4CC[C@@H]5C[C@H]4C5(C)C)cccc3n2)CCN1 [Compound 564, N-{[(1R,2R,5R)-6,6-dimethylbicyclo[3.1.1]hept-2-yl]methyl}-2-{2-[(3R)-3-methylpiperazin-1-yl]-2-oxoethyl}imidazo[1,2-a]pyridine-5-carboxamide]
3 | < 2000 nM | CC1(C)[C@H]2CC[C@@H](CNC(=O)c3cccc4nc(C(=O)N5CCOCC5)cn34)[C@@H]1C2 [Compound 464, N-{[(1S,2R,5S)-6,6-dimethylbicyclo[3.1.1]hept-2-yl]methyl}-2-(morpholin-4-ylcarbonyl)imidazo [1,2-a]pyridine-5-carboxamide]
4 | < 2000 nM | CC(C)[C@H]1CN(C(=O)c2cn3c(C(=O)NCC45CC6CC(CC(C6)C4)C5)cccc3n2)CCN1 [Compound 615, N-(adamantan-1-ylmethyl)-2-{[(3S)-3-isopropylpiperazin-1-yl]carbonyl}imidazo[1,2-a]pyridine-5-carboxamide]

same assay, conditions: 50% decrease in the fluorescence response of cells exposed to 80 μM of 2′(3′)-O-(4-benzoyl-benzoyl)adenosine 5′-triphosphate; Example 4A; read-out: IC50

Row | Compound | IC50
5 | NC1CCN(C(=O)c2cn3c(C(=O)NCC45CC6CC(CC(C6)C4)C5)cccc3n2)C1 (stereo not drawn) [Compound 625, N-(adamantan-1-ylmethyl)-2-[(3-aminopyrrolidin-1-yl)carbonyl] imidazo[1,2-a]pyridine-5-carboxamide] | < 2000 nM
6 | COCCN(C)C1CCN(C(=O)c2cn3c(C(=O)NCC45CC6CC(CC(C6)C4)C5)cccc3n2)CC1 [Compound 720, N-(adamantan-1-ylmethyl)-2-({4-[(2-methoxyethyl)(methyl)amino]piperidin-1-yl}carbonyl)imidazo[l, 2-a]pyridine-5-carboxamide] | < 2000 nM
7 | O=C(NCCCN1CCCC1)c1cn2c(C(=O)NCC34CC5CC(CC(C5)C3)C4)cccc2n1 [Compound 645, 5-N-(adamantan-1-ylmethyl)-2-N-(3-pyrrolidin-1-ylpropyl)imidazo[1,2-a]pyridine-2,5-dicarboxamide] | < 2000 nM

Second part, the compound after the results:

Row | IC50 | Compound
8 | < 2000 nM | CCOC(=O)C(Cc1cn2c(C(=O)NCC34CC5CC(CC(C5)C3)C4)cccc2n1)C(=O)OC(C)(C)C (stereo not drawn) [Compound 728, tert-butyl ethyl ({5-[(adamantan-1-ylmethyl)carbamoyl]imidazo[1,2-a]pyridin-2-yl}methyl)malonate]
9 | < 2000 nM | O=C(NCc1ccncc1)c1cn2c(C(=O)NCC34CC5CC(CC(C5)C3)C4)cccc2n1 [Compound 661, 5-N-(adamantan-1-ylmethyl)-2-N-(pyridin-4-ylmethyl)imidazo [1,2-a]pyridine-2,5-dicarboxamide]

same assay, conditions: 50% decrease in the fluorescence response of cells exposed to 80 μM of 2′(3′)-O-(4-benzoyl-benzoyl)adenosine 5′-triphosphate; determined as in Example 4A; read-out: IC50

Row | IC50 | Compound
10 | < 2000 nM | O=C(Cc1cn2c(C(=O)NC3CCCCC3)cccc2n1)NCC12CC3CC(CC(C3)C1)C2 [Compound 973, 2-{2-[(adamantan-1-ylmethyl)amino]-2-oxoethyl}-N-cyclohexylimidazo[1,2-a]pyridine-5-carboxamide]
11 | < 2000 nM | CC(C)CC(CNC(=O)Cc1cn2c(C(=O)NC3CCCCC3)cccc2n1)c1ccc(Cl)cc1 (stereo not drawn) [Compound 975, 2-(2-{[2-(4-chlorophenyl)-4-methylpentyl]amino}-2-oxoethyl)-N-cyclohexylimidazo [1,2-a]pyridine-5-carboxamide]
12 | < 2000 nM | O=C(NCC1(c2cccnc2)CCCCC1)c1cccc2nc(CC(=O)N3CCSCC3)cn12 [Compound 890, 2-(2-oxo-2-thiomorpholin-4-ylethyl)-N-[(1-pyridin-3-ylcyclohexyl)methyl] imidazo[1,2-a] pyridine-5-carboxamide]
13 | < 2000 nM | O=C(NCC12CC3CC(CC(C3)C1)C2)c1cccc2nc(CC3(C(=O)O)CCOCC3)cn12 [Compound 847, 4-({5-[(adamantan-1-ylmethyl)carbamoyl]imidazo [1,2-a]pyridin-2-yl}methyl) tetrahydro-2H-pyran-4-carboxylic acid]
14 | < 2000 nM | CCCC(CNC(=O)c1cccc2nc(CC(=O)N[C@@H]3CCCNC3)cn12)c1ccc(Cl)cc1 (stereo partly drawn) [Compound 925, N-[2-(4-chlorophenyl)pentyl]-2-{2-oxo-2-[(3R)-piperidin-3-ylamino]ethyl} imidazo [1,2-a]pyridine-5-carboxamide]

Row | Compound | IC50
15 | CN(C)C1CCCN(C(=O)Cc2cn3c(C(=O)NCC4(c5ccc(C(F)(F)F)cc5)CCCCC4)cccc3n2)C1 (stereo not drawn) [Compound 892, 2-{2-[3-(dimethylamino)piperidin-1-yl]-2-oxoethyl}-N-({1-[4-(trifluoromethyl)phenyl]cyclohexyl}methyl) imidazo[1,2-a] pyridine-5-carboxamide] | < 2000 nM

same assay, conditions: P2X7 calcium mobilization, Example 4A; 50% decrease in the fluorescence response of cells exposed to 80 μM of (2′(3′)-O-(4-benzoyl-benzoyl)adenosine 5′-triphosephate); read-out: IC50

Row | IC50 | Compound
16 | < 2000 nM | CC(C)CC(CNC(=O)c1cccc2nc(C(F)(F)F)cn12)c1ccc(Cl)cc1 (stereo not drawn) [Compound 1021, N-[2-(4-chlorophenyl)-4-methylpentyl]-2-(trifluoromethyl) imidazo [1,2-a]pyridine-5-carboxamide]

same assay, conditions: SH-SY5Y cells; 50% decrease in fluorescence response to 80 μM BzATP; read-out: IC50

Row | IC50 | Compound
17 | < 2000 nM | O=C(NCC12CC3CC(CC(C3)C1)C2)c1cccc2nc(C(=O)N3CCCC(O)C3)cn12 (stereo not drawn) [Compound 105, N-(adamantan-1-ylmethyl)-2-[(3-hydroxypiperidin-1-yl)carbonyl]imidazo[1,2-a]pyridine-5-carboxamide]
18 | < 2000 nM | O=C(NCC12CC3CC(CC(C3)C1)C2)c1cccc2nc(CC(=O)N3CCCC(C(F)(F)F)C3)cn12 (stereo not drawn) [Compound 174, N-(adamantan-1-ylmethyl)-2-{2-oxo-2-[3-(trifluoromethyl)piperidin-1-yl]ethyl}imidazo[1,2-a]pyridine-5-carboxamide]
19 | < 2000 nM | COC1CCN(C(=O)c2cn3c(C(=O)NCC45CC6CC(CC(C6)C4)C5)cccc3n2)CC1 [Compound 95, N-(adamantan-1-ylmethyl)-2-[(4-methoxypiperidin-1-yl)carbonyl]imidazo[1,2-a]pyridine-5-carboxamide]

Row | Compound | IC50
20 | CCN1CCN(C(=O)Cc2cn3c(C(=O)NCC45CC6CC(CC(C6)C4)C5)cccc3n2)CC1 [Compound 169, N-(adamantan-1-ylmethyl)-2-[2-(4-ethylpiperazin-1-yl)-2-oxoethyl]imidazo[1,2-a]pyridine-5-carboxamide] | < 2000 nM

same assay, conditions: fluorescence response of cells exposed to 80 μM 2′(3′)-O-(4-benzoyl-benzoyl)adenosine 5′-triphosphate; Example 4A; read-out: IC50

Row | IC50 | Compound
21 | < 2000 nM | CC1(C)[C@H]2CC[C@@H](CNC(=O)c3cccc4nc(C(=O)N5CCC(N)CC5)cn34)[C@@H]1C2 [Compound 326, 2-[(4-aminopiperidin-1-yl)carbonyl]-N-{[(1S,2R,5S)-6.6-dimethylbicyclo[3.1.1]hept-2-yl]methyl}imidazo[1,2-a]pyridine-5-carboxamide]
22 | < 2000 nM | O=C(NCC12CC3CC(CC(C3)C1)C2)c1cccc2nc(CCc3nnn[nH]3)cn12 [Compound 292, N-(adamantan-1-ylmethyl)-2-(2-(1H-tetrazol-5-yl)ethyl]imidazo[1,2-a]pyridine-5-carboxamide]
23 | < 2000 nM | O=C(NCC12CC3CC(CC(C3)C1)C2)c1cccc2nc(CN3CC[C@H](F)C3)cn12 [Compound 282, N-(adamantan-1-ylmethyl)-2-[(3-fluoropyrrolidin-1-yl)methyl]imidazo[1,2-a]pyridine-5-carboxamide]
24 | < 2000 nM | CN(C(=O)c1cn2c(C(=O)NC[C@@H]3CC[C@H]4C[C@@H]3C4(C)C)cccc2n1)C1CCCNC1 (stereo partly drawn) [Compound 311, 5-N-{[(1S,2R,5S)-6,6-dimethylbicyclo[3.1.1]hept-2-yl]methyl}-2-N-methyl-2-N-piperidin-3-ylimidazo[1,2-a]pyridine-2,5-dicarboxamide]
